Laboratory results: article PMC12175894 (Science Advances, 2025)
Changes are numbered by the printed parent chain. Read-outs that look alike come from different tables or passages of the source.

How the values were obtained:
5-HT1AR Y96^2.64A = biological target: T1, 5-HT1AR Y96^2.64A (Homo sapiens, UniProt P08908, Y96A); test: GloSensor cAMP accumulation in HEK293AΔGi/o; format: cell-based; settings: read-out: Emax [% ± SEM], cAMP accumulation
T1 sequence (P08908 1-422 Y96A): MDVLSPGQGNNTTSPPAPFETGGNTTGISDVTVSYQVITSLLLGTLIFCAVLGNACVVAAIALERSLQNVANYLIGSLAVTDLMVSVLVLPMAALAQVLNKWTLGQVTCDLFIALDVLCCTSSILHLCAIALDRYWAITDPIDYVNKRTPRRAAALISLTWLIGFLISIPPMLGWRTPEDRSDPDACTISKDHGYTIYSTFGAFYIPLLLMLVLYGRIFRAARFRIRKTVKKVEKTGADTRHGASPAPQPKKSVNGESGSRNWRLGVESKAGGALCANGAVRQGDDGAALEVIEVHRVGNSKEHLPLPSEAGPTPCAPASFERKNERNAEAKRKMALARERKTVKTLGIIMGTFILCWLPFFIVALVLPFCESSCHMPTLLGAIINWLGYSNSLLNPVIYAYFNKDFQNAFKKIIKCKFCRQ

5-HT1AR = biological target: T2, 5-HT1AR (Homo sapiens, UniProt P08908); test: GloSensor cAMP assay in HEK293T cells; format: cell-based; set-up: host or cells: HEK293T, HEK293A, HEK293AΔGs, HEK293AΔGi/o, HEK293AΔARRB1/B2
T2 sequence (P08908 1-422): T1 sequence (P08908 1-422 Y96A) with A96Y

5-HT1AR Q97^2.65A [1] = biological target: T3, 5-HT1AR Q97^2.65A (Homo sapiens, UniProt P08908, Q97A); test: GloSensor cAMP accumulation in HEK293AΔGi/o; format: cell-based; settings: read-out: Emax [% ± SEM], cAMP accumulation
T3 sequence (P08908 1-422 Q97A): T1 sequence (P08908 1-422 Y96A) with A96Y, Q97A

5-HT1AR F112^3.28W = biological target: T4, 5-HT1AR F112^3.28W (Homo sapiens, UniProt P08908, F112W); test: β-arrestin 2 recruitment, enhanced bystander BRET in HEK293T with GRK2; settings: HEK-293T, read-out: Emax [% ± SEM], β-arrestin 2 recruitment
T4 sequence (P08908 1-422 F112W): T1 sequence (P08908 1-422 Y96A) with A96Y, F112W

5-HT1AR + Gαz = biological target: T5, 5-HT1AR + Gαz (Homo sapiens, UniProt P08908); test: GloSensor cAMP in HEK293AΔGi/o co-transfected with Gαz; format: cell-based
T5 construct: host or cells: HEK293AΔGi/o

[2] = biological target: T6, 5-HT1AR F112^3.28W + M92^2.60F (Homo sapiens, UniProt P08908, F112W/M92F); test: β-arrestin 2 recruitment, enhanced bystander BRET in HEK293T with GRK2; format: cell-based; settings: HEK-293T; read-out: Emax [% ± SEM], β-arrestin 2 recruitment
T6 sequence (P08908 1-422 M92F/F112W): T1 sequence (P08908 1-422 Y96A) with M92F, A96Y, F112W

5-HT1AR Q97^2.65A [3] = biological target: T3, 5-HT1AR Q97^2.65A; test: GloSensor inhibition of cAMP accumulation in HEK293AΔGs; format: cell-based; settings: for Emax: read-out: Emax [% ± SEM], inhibition of cAMP accumulation
male C56BL/6 mice [4] = test: von Frey assay, hind paw mechanical thresholds; format: in vivo, mouse; settings: 10 mg/kg i.p., 30 min after injection
male C56BL/6 mice [5] = test: 50°C tail flick; format: in vivo, mouse; settings: 10 mg/kg i.p.

T5 sequence (P08908 whole entry): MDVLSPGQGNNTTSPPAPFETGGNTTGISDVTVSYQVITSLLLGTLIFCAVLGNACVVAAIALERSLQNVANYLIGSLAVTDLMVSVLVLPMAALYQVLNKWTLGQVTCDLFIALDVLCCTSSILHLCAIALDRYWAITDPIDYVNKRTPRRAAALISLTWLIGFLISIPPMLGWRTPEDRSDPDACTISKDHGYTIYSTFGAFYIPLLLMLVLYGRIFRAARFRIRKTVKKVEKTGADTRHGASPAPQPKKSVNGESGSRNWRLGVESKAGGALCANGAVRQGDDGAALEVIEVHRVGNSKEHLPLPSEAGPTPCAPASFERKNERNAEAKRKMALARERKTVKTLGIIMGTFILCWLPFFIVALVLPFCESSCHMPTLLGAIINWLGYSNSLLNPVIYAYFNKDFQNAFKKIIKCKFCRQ
T5 sequence (P19086 2-355 partner limits assumed): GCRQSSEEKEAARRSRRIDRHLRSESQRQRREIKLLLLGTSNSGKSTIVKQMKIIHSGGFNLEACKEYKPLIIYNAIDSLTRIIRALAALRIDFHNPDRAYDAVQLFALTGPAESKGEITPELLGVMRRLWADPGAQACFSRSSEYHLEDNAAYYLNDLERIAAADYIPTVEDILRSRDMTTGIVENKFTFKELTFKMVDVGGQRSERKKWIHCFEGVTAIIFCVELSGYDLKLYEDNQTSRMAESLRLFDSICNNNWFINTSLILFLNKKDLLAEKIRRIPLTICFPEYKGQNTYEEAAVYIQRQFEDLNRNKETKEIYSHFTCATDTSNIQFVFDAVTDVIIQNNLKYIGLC

| Structure (SMILES) | Emax (5-HT1AR Y96^2.64A) [%] | Esat [%±SEM] (5-HT1AR; HEK293T, GloSensor) [%] | Emax (5-HT1AR; HEK-293T; read-out: Emax [%±SEM], inhibition of cAMP accumulation) [%] | Emax (5-HT1AR Q97^2.65A [1]) [%] | Emax (5-HT1AR F112^3.28W) [%] | Emax (5-HT1AR + Gαz) [%] | Emax [2] [%] | Emax (5-HT1AR Q97^2.65A [3]) [%] | mechanical thresholds, von Frey (male C56BL/6 mice [4]) | response latency, 50°C tail flick (male C56BL/6 mice [5]) | EC50 (5-HT1AR; HEK293T, GloSensor; read-out: EC50 left [nM±SEM], inhibition of cAMP accumulation) [nM] | Emax (5-HT1AR; HEK-293T, read-out: Emax [%±SEM], inhibition of cAMP accumulation) [%] | EC50 (5-HT1AR Q97^2.65A [3]; HEK293AΔGs, Q97A, read-out: EC50 [nM ± SEM], inhibition of cAMP accumulation) [nM] |
| --- | --- | --- | --- | --- | --- | --- | --- | --- | --- | --- | --- | --- | --- |
| Cc1ccc(CNCC2(F)CCN(C(=O)c3ccc(F)c(Cl)c3)CC2)nc1 [befiradol, reference compound] | 69 ± 5 | 71 ± 6 | 111 ± 6 | 60 ± 2 | 86 ± 3 | 95 ± 2 | 83 ± 4 | 91 ± 7 | significantly increasing mechanical thresholds | antinociceptive |  |  |  |
| COc1ccccc1OCCNCCCOc1ccc2c(c1)NC(=O)CO2 [ST171] | < 5 |  |  | < 5 | < 5 | 93 | < 5 | 79 ± 6 | significantly increasing mechanical thresholds | antinociceptive | 0.9 ± 0.2 | 100 ± 3 | 8 ± 0.9 |
